The text below walks through data of patent US10093670B2, “Azabenzimidazole derivative having AMPK-activating activity” (Shionogi & Co., Ltd., priority 2011, dated 2018).

The target in the experiment is T1, human AMPK α1β1γ1 enzyme (Homo sapiens, UniProt Q13131+Q9Y478).
T1 construct: purchased Carna Biosciences, Inc
The experiment can be described thus: Evaluation of AMPK activator, Test Example 1 (mobility-shift kinase assay, FL-Peptide 7). Type of experiment: biochemical. The following applies: for EC150 (compound concentration showing 150% relative to the control (100%)): human AMPK α1β1γ1, 25° C., 2 hours, 0.2 mM ATP final; for Emax: human AMPK α1β1γ1, relative to control (100%), read-out: Emax (maximum rate of increase in activity within the measurement range). The protocol: The obtained liquid was left to stand for 10 minutes.
The obtained liquid was allowed to react at 25° C. for 2 hours, and 10 μl of 20 mM EDTA was then added thereto to stop the reaction.
To detect phosphorylated fluorescent substrates, the reaction liquid was applied to a measuring device, LabChip EZ Reader II manufactured by Caliper Life Science, Inc., for detecting fluorescence by using differences in mobility due to differences in charge. The setting conditions for the device were pressure, −1.5 PSI; upstream voltage, −2250 V; downstream voltage, −400 V; post sample buffer sip time, 40 seconds; final delay, 120 seconds; and peak order, Product First.
A conversion rate was calculated from the peak heights of the resulting substrate and product. The conversion rate when not containing a compound was used as a control, and a concentration dependent curve was made by plotting the rate of increase in activity to the control at each concentration of a compound.

A word on the Emax: it is the maximal effect, on the per cent scale that the assay sets.

T1 sequence (Q13131 10-559 limits assumed): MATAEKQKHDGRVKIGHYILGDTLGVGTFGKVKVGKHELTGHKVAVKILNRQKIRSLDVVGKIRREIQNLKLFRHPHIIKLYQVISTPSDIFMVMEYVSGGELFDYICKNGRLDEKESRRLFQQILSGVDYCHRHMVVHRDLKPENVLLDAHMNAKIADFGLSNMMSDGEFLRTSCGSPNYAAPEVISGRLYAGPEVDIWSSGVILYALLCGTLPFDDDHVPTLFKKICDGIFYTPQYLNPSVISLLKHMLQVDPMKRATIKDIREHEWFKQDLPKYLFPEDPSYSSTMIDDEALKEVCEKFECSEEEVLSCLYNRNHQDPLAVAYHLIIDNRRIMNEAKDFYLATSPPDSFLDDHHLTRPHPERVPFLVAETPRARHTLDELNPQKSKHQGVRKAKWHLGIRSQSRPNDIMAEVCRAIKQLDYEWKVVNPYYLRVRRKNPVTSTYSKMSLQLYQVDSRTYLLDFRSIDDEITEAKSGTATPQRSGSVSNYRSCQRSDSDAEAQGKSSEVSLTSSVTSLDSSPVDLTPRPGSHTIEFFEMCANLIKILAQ
T1 sequence (Q9Y478 whole entry): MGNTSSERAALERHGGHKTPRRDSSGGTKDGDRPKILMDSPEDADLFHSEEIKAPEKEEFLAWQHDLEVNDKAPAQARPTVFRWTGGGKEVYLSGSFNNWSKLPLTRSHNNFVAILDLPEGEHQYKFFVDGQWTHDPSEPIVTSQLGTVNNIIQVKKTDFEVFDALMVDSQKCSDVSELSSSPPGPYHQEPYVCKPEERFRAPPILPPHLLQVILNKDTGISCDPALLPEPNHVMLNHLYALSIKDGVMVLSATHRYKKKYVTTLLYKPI
T1 sequence (P54619 whole entry partner): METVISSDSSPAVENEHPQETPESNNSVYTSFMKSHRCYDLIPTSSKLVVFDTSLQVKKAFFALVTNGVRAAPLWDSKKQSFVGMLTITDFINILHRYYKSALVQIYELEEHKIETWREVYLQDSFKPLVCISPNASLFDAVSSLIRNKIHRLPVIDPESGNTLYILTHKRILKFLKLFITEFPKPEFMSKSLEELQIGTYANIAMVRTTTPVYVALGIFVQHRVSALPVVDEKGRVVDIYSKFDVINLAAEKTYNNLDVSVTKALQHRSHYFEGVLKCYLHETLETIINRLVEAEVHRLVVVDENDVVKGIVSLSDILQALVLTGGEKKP

Turning to `O=C(O)CSc1nc2nc(-c3ccc(N4CCOCC4)cc3)c(Cl)cc2[nH]1` [Compound I-1-4], the “EC150 (compound concentration showing 150% relative to the control (100%))” value was 160 nM and the Emax was 283%.
Turning to `O=C(O)COc1nc2nc(-c3ccc(N4CCOCC4)cc3)c(Cl)cc2[nH]1` [Compound I-1-10], the “EC150 (compound concentration showing 150% relative to the control (100%))” value stood at 390 nM and the Emax turned out to be 270%.
With `O=C(O)CN1CCC(Oc2nc3nc(-c4ccc(N5CCOCC5)cc4)c(Cl)cc3[nH]2)CC1.O=CO` [Compound I-1-11], the “EC150 (compound concentration showing 150% relative to the control (100%))” value is on record as 2100 nM and the Emax is 238%.
On the same counts, the results for `Oc1cc(COc2nc3nc(-c4ccc(N5CCOCC5)cc4)c(Cl)cc3[nH]2)on1` [Compound I-1-12] are 320 nM and 263%.
`O=C(COc1nc2nc(-c3ccc(N4CCOCC4)cc3)c(Cl)cc2[nH]1)N1CCC(F)(F)CC1` [Compound I-1-21]: the “EC150 (compound concentration showing 150% relative to the control (100%))” value turned out to be 730 nM and the Emax came out at 284%.
On the same counts, the results for `CN1CCC(Oc2nc3nc(-c4ccc(N5CCOCC5)cc4)c(Cl)cc3[nH]2)CC1` [Compound I-1-25] are 3100 nM and 226%.
On the same counts, the results for `CC(C#N)Oc1nc2nc(-c3ccc(N4CCOCC4)cc3)c(Cl)cc2[nH]1` (stereo not drawn) [Compound I-1-27] are 310 nM and 226%.
On the same counts, the results for `CC(Oc1nc2nc(-c3ccc(N4CCOCC4)cc3)c(Cl)cc2[nH]1)c1noc(=O)[nH]1` (stereo not drawn) [Compound I-1-28] are 210 nM and 231%.
In the case of `CS(=O)(=O)N1CCC(Oc2nc3nc(-c4ccc(N5CCOCC5)cc4)c(Cl)cc3[nH]2)CC1` [Compound I-1-32], the “EC150 (compound concentration showing 150% relative to the control (100%))” value was 200 nM and the maximal effect (Emax) is 280%.
On the same counts, the results for `CC(Oc1nc2nc(-c3ccc(N4CCOCC4)cc3)c(Cl)cc2[nH]1)C(N)=O` (stereo not drawn) [Compound I-1-37] are 910 nM and 228%.
Regarding `CC(Sc1nc2nc(-c3ccc(N4CCOCC4)cc3)c(Cl)cc2[nH]1)C(=O)O` (stereo not drawn) [Compound I-1-39], the “EC150 (compound concentration showing 150% relative to the control (100%))” value worked out at 160 nM and the Emax came to 258%.
On the same counts, the results for `CC(C)(Sc1nc2nc(-c3ccc(N4CCOCC4)cc3)c(Cl)cc2[nH]1)C(=O)O` [Compound I-1-57] are 140 nM and 277%.
For `CC(Cc1nc2nc(-c3ccc(N4CCOCC4)cc3)c(Cl)cc2[nH]1)C(=O)O` (stereo not drawn) [Compound I-1-62], the “EC150 (compound concentration showing 150% relative to the control (100%))” value is reported as 540 nM and the maximal effect (Emax) stood at 228%.
As for `O=C1CCC(Oc2nc3nc(-c4ccc(N5CCOCC5)cc4)c(Cl)cc3[nH]2)CN1` (stereo not drawn) [Compound I-1-68], the “EC150 (compound concentration showing 150% relative to the control (100%))” value is reported as 4900 nM and the Emax was 174%.
In the case of `O=C(O)[C@H]1CC[C@H](Oc2nc3nc(-c4ccc(-c5ccccc5)cc4)c(Cl)cc3[nH]2)CC1` [Compound I-2-30], the “EC150 (compound concentration showing 150% relative to the control (100%))” value was 650 nM and the Emax came out at 178%.
On the same counts, the results for `NC(=O)[C@H]1CC[C@H](Oc2nc3nc(-c4ccc(N5CCOCC5)cc4)c(Cl)cc3[nH]2)CC1` [Compound I-2-33] are 70 nM and 236%.
As to `O=C(O)C[C@H]1CC[C@H](Oc2nc3nc(-c4ccc(N5CCOCC5)cc4)c(Cl)cc3[nH]2)CC1` [Compound I-2-40], the “EC150 (compound concentration showing 150% relative to the control (100%))” value amounted to 51 nM and the Emax was found to be 293%.
On the same counts, the results for `CC(=O)NC1CC=C(c2ccc(-c3nc4nc(O[C@H]5CC[C@H](C(=O)O)CC5)[nH]c4cc3Cl)cc2)CC1` (stereo partly drawn) [Compound I-2-58] are 650 nM and 169%.
On the same counts, the results for `CC(=O)N1CC=C(c2ccc(-c3nc4nc(O[C@H]5CC[C@H](C(=O)O)CC5)[nH]c4cc3Cl)cc2)CC1` [Compound I-2-59] are 2300 nM and 181%.
Regarding `O=C(O)[C@H]1CC[C@H](Oc2nc3nc(-c4ccc(-c5ccccc5O)cc4)c(Cl)cc3[nH]2)CC1` [Compound I-2-60], the “EC150 (compound concentration showing 150% relative to the control (100%))” value is on record as 49 nM and the Emax worked out at 205%.
In the case of `O=C(c1ccc(-c2ccc(-c3nc4nc(O[C@H]5CC[C@H](C(=O)O)CC5)[nH]c4cc3Cl)cc2)cc1)N1CCOCC1` [Compound I-2-61], the “EC150 (compound concentration showing 150% relative to the control (100%))” value worked out at 72 nM and the Emax is 189%.
`CN(C)C(=O)N1CC(Oc2nc3nc(-c4ccc(C5=CCC(C(=O)O)CC5)cc4)c(Cl)cc3[nH]2)C1` (stereo not drawn) [Compound I-2-71]: the “EC150 (compound concentration showing 150% relative to the control (100%))” value was determined as 2400 nM and the Emax is 193%.
On the same counts, the results for `O=C(O)C[C@H]1CC[C@H](Oc2nc3nc(-c4ccc(C5=CCOCC5)cc4)c(Cl)cc3[nH]2)CC1` [Compound I-2-85] are 18 nM and 255%.
Regarding `CC(Oc1nc2nc(-c3ccc(N4CCOCC4)cc3)c(Cl)cc2[nH]1)[C@H]1CC[C@H](C(=O)O)CC1` (stereo partly drawn) [Compound I-2-88], the “EC150 (compound concentration showing 150% relative to the control (100%))” value came out at 65 nM and the Emax is 288%.
On the same counts, the results for `CC(Oc1nc2nc(-c3ccc(C4=CCC(C(=O)O)CC4)cc3)c(Cl)cc2[nH]1)c1ccccn1` (stereo not drawn) [Compound I-2-104] are 6400 nM and 161%.
`CC(C)(COc1nc2nc(-c3ccc(N4CCOCC4)cc3)c(Cl)cc2[nH]1)C(=O)O` [Compound I-2-109]: the “EC150 (compound concentration showing 150% relative to the control (100%))” value was 250 nM and the Emax came out at 212%.
On the same counts, the results for `CC(Oc1nc2nc(-c3ccc(N4CCCC4)cc3)c(Cl)cc2[nH]1)c1noc(=O)[nH]1` (stereo not drawn) [Compound I-2-114] are 49 nM and 215%.
As to `O=C(O)C1(COc2nc3nc(-c4ccc(N5CCOCC5)cc4)c(Cl)cc3[nH]2)CC1` [Compound I-2-116], the “EC150 (compound concentration showing 150% relative to the control (100%))” value was 130 nM and the Emax amounted to 229%.
Consider `O=C(O)[C@H]1C[C@H](Oc2nc3nc(-c4ccc(N5CCOCC5)cc4)c(Cl)cc3[nH]2)C1` [Compound I-2-118], for which the Emax worked out at 194%.
For the compound `CC(Oc1nc2nc(-c3ccc(N4CCOCC4)cc3)c(Cl)cc2[nH]1)C(C)(C)C(=O)O` (stereo not drawn) [Compound I-2-121], the “EC150 (compound concentration showing 150% relative to the control (100%))” value is reported as 160 nM and the Emax turned out to be 258%.
For the compound `CN(CCO)C(=O)N1CCC(Oc2nc3nc(-c4ccc(C5=CCC(C(=O)O)CC5)cc4)c(Cl)cc3[nH]2)CC1` (stereo not drawn) [Compound I-3-2], the “EC150 (compound concentration showing 150% relative to the control (100%))” value is listed as 1.4 nM and the Emax turned out to be 182%.
On the same counts, the results for `CN(C)C(=O)[C@H]1C[C@@H](Oc2nc3nc(-c4ccc(C5=CCC(C(=O)O)CC5)cc4F)c(Cl)cc3[nH]2)C1` (stereo partly drawn) [Compound I-3-3] are 19 nM and 271%.
On the same counts, the results for `CCC(Oc1nc2nc(-c3ccc(N4CCOCC4)cc3)c(Cl)cc2[nH]1)C(=O)O` (stereo not drawn) [Compound I-3-11] are 61 nM and 240%.
On the same counts, the results for `Clc1cc2[nH]c(OC3CCOCC3)nc2nc1-c1ccc(N2CCOCC2)cc1` [Compound I-3-12] are 21 nM and 211%.
Regarding `CC(Oc1nc2nc(-c3ccc(C4=CCC(C(=O)O)CC4)cc3)c(Cl)cc2[nH]1)C(N)=O` (stereo not drawn) [Compound I-3-14], the “EC150 (compound concentration showing 150% relative to the control (100%))” value was 130 nM and the Emax came to 232%.
With `CC(C)(C(N)=O)C1CCC(Oc2nc3nc(-c4ccc(N5CCOCC5)cc4)c(Cl)cc3[nH]2)CC1` (stereo not drawn) [Compound I-3-25], the “EC150 (compound concentration showing 150% relative to the control (100%))” value was 230 nM and the maximum response (Emax) stood at 210%.
Consider `O=C(O)C1CC=C(c2ccc(-c3nc4nc(OC5CCOCC5)[nH]c4cc3Cl)cc2)CC1` (stereo not drawn) [Compound I-3-26], for which the “EC150 (compound concentration showing 150% relative to the control (100%))” value is 68 nM and the Emax is 221%.
Regarding `CC(C)C(Oc1nc2nc(-c3ccc(N4CCOCC4)cc3)c(Cl)cc2[nH]1)C(=O)O` (stereo not drawn) [Compound I-3-27], the “EC150 (compound concentration showing 150% relative to the control (100%))” value is reported as 280 nM and the maximal effect (Emax) is 228%.
Consider `CC(=O)N1CC=C(c2ccc(-c3nc4nc(OC5CCC(C(C)(C)C(=O)O)CC5)[nH]c4cc3Cl)cc2)CC1` (stereo not drawn) [Compound I-3-39], for which the “EC150 (compound concentration showing 150% relative to the control (100%))” value came out at 5.1 nM and the Emax was determined as 286%.
On the same counts, the results for `CC(C)(C(=O)O)C1CCC(Oc2nc3nc(-c4ccc(N5CCCC5)cc4)c(Cl)cc3[nH]2)CC1` (stereo not drawn) [Compound I-3-44] are 7.6 nM and 275%.
On the same counts, the results for `CCC(Oc1nc2nc(-c3ccc(C4=CCC(NC(C)=O)CC4)cc3)c(Cl)cc2[nH]1)C(N)=O` (stereo not drawn) [Compound I-3-50] are 160 nM and 228%.
